US6689938B2, “Method for treatment of insulin resistance in obesity and diabetes” (Oklajoma Medical Research Foundation, priority 2000, dated 2004)

What was measured:
Assay type in all cases: in vivo, mouse
[1] = tested on: POMC null mutants and wildtype littermates; test: Corticosterone supplementation in drinking water, blood glucose levels; settings: 25 μg per mL in drinking water for 3½ months, starting at 3 months of age; POMC null mutants and wildtype females
Description: (§1) In the experiment illustrated in FIG. 7, POMC null mutants and wildtype littermate females, 5 per group, received drinking water containing corticosterone (25 μg per mL) or nothing in addition for 3½ months, starting at 3 months of age. Blood glucose levels were determined before and after corticosterone supplementation.

[2] = tested on: POMC null mutants and wildtype mice; test: Insulin tolerance test after corticosterone supplementation
Description: In this experiment, illustrated in FIG. 6, food was taken away in the morning from 5 month old females, 5 per group. 6 hrs later, the mice were injected with insulin (Human insulin, 1 Unit/kg, i.p.). Blood was collected at times indicated and glucose measured using a Glucometer.
as §1

[3] = tested on: POMC mutants and wildtype mice; test: Insulin tolerance test after MSH or ACTH treatment; settings: for glucoregulatory response / ability of POMC null mice: peripheral administration to POMC null mice
Description: In this experiment, illustrated in FIG. 9, glucose was measured in 4-6 month old female mice, wildtypes and POMC mutants, 5 mice per group. Mice were fasted for 5 hours. Each genotype (wildtype +/+and mutant −/−) received either: (1) 0.1 mL saline i.p.; (2) 0.1 mL saline containing 1 μg α-MSH i.p.; or (3) 0.1 mL saline containing 1 μg ACTH s.c.
One hour later, human insulin (0.5 mIU/g body weight) was injected intraperitoneally in all mice, and glucose was measured at the indicated intervals in blood collected from a tail nick.

Compound | induction of diabetes (blood glucose levels before and after supplementation) [1] | counterregulatory response in insulin tolerance test ([2]; POMC mutants versus wildtype mice) | blood glucose levels in insulin tolerance test ([2]; both wildtypes and mutants, versus untreated group) | blood glucose levels in insulin tolerance test, treated POMC mutants versus wildtype littermates ([3]; 1 μg α-MSH i.p. one hour before human insulin 0.5 mIU/g i.p., 4-6 month old females fasted 5 hours) | insulin resistance in the POMC null mouse ([3]; administration to the POMC null mouse) | glucoregulatory response / ability of POMC null mice [3] | glucoregulatory response / ability of POMC null mice ([3]; listed as melanocortin stimulating hormone (MSH))
C[C@]12C[C@H](O)[C@H]3[C@@H](CCC4=CC(=O)CC[C@@]43C)[C@@H]1CC[C@@H]2C(=O)CO [corticosterone] | does not induce diabetes | lag behind the wildtype mice in their counterregulatory response in the same manner as without corticosterone supplementation | do not fall to as low a level as in the untreated group |  |  |  | 
Ac-Ser-Tyr-Ser-Met-Glu-His-Phe-Arg-Trp-Gly-Lys-Pro-Val-NH2 [α-MSH] |  |  |  | not significantly different | induces insulin-resistance | restored the glucoregulatory ability | nearly normalizes the glucoregulatory response
